Holding throughout (experiment): NCI tumour cell line growth inhibition, 48 h
The subject of assay [1] is TK-10 renal.
The subject of assay [2] is NCI-H226 lung.
Assay [3] deals with T-47D breast.
In assay [4] the test system is NCI/ADR-RES ovarian.
Assay [5] concerns OVCAR-3 ovarian.
In assay [6] the test system is DU-145 prostate.
The subject of assay [7] is SW-620 colon.
Assay [8] concerns KM12 colon.
For assay [9], the system named is ACHN renal.
Assay [10] deals with HOP-62 NSCLC.

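Step 1: Grow cells in 96-well plates. Step 2: Expose to compound for 48 hours at 5 concentrations. Step 3: Interpolate endpoints linearly; if unreached, use highest concentration. At the GI50, growth is halved. The concentration for full growth arrest is given as TGI.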

Take `CC1=C(C(=S)Nc2ccc(Cl)c(C(=O)OC(C)C)c2)SCCO1`: the TGI worked out at 54.3 µM in assay [1]; 44.6 µM in [2]; 51.7 µM in [3]; 43.2 µM in [4]; 52.7 µM in [5]; 57.1 µM in assay [6]. The TGI is 44.7 µM in assay [7], 33.5 µM in [8] and 85.9 µM in assay [9].

As for `O=C(O)CCCCCNCc1cc2cc3c(cc2c2cc(OCc4ccccc4)ccc12)OCO3`, the GI50 in [10] was 2 µM; in assay [1], 2.63 µM; in assay [2], 4.37 µM; in assay [3] it was 2.06 µM; in [4], 2.88 µM; in assay [5] it was 2.11 µM. The GI50 is 2.37 µM in assay [6], 1.5 µM in assay [7], 1.63 µM in assay [8] and 3.48 µM in [9]. Further, the TGI in assay [10] came out at 5.25 µM; in [1] it was 5.99 µM; in assay [2], 21.9 µM; in [3], 5.04 µM; in [4] it was 11.1 µM; in [5], 5.06 µM. In addition, the TGI came to 5.47 µM in [6], 3.1 µM in assay [7], 3.19 µM in assay [8] and 13.2 µM in assay [9].

Take `COc1ccc(/C=C\c2cc(OC)c(OC)c(OC)c2)cc1NC(=O)/C=C/c1cc(OC)c(OC)c(OC)c1`: the GI50 in assay [10] is 4.62 µM; in assay [1], > 100 µM; in [2], 4.15 µM; in assay [3] it was 5.01 µM; in assay [4] it was 2.1 µM; in assay [5], 5.62 µM. The GI50 in assay [6] was 5.01 µM; in assay [7], 5.2 µM; in assay [8] it was 4.67 µM; in assay [9] it was 6.76 µM. Moreover, the TGI in [10], in assay [1], in assay [2], in assay [3], in [4] and in assay [5] was > 100 µM throughout. Moreover, the TGI in assay [6], in assay [7], in [8] and in assay [9] was > 100 µM in each case.

Take `O=C1c2ccccc2C(=O)c2c1ccc1c3ccccc3n(-c3ccccc3)c21`: the TGI in assay [10] is > 100 µM; in assay [1], 60.1 µM; in [2], 44.1 µM; in [3], 45.5 µM; in [4], > 100 µM; in assay [5] it was 55 µM. In addition, the TGI in assay [6] is 33.4 µM; in [7], 48 µM; in assay [8] it was 50.1 µM; in assay [9], 41.2 µM.

As for `CC1CCc2c(C(=O)Nc3ncc(Cc4cccc([N+](=O)[O-])c4)s3)csc2C1` (configuration not stated), the GI50 is 0.795 µM in [10]; 5.04 µM in assay [1]; 1.96 µM in assay [2]; 0.653 µM in assay [3]; 0.46 µM in assay [4]; 0.391 µM in assay [5]. The GI50 in assay [6] is 1.05 µM; in assay [7] it was 0.414 µM; in assay [8] it was 0.442 µM; in assay [9] it was 0.937 µM. Besides, the TGI in [10] was > 100 µM; in assay [1], > 100 µM; in [2], > 100 µM; in assay [3] it was > 100 µM; in [4] it was > 100 µM; in assay [5], 2.25 µM. The TGI in assay [6], in [7], in assay [8] and in assay [9] was > 100 µM in each case.

With `CN1CCN(Cc2ccc(NC(=O)c3cncc(C#Cc4c(N)ncc5ccccc45)c3)cc2C(F)(F)F)CC1`, the GI50 is 0.733 µM in assay [10]; 0.919 µM in [1]; 0.831 µM in assay [3]; 0.945 µM in assay [4]; 0.817 µM in [5]; 0.716 µM in assay [6]. Moreover, the values for the GI50 in [7], in assay [8] and in assay [9] were 0.185 µM, 0.005 µM and 0.569 µM, respectively. Besides, the TGI worked out at 1.66 µM in assay [10]; 1.66 µM in assay [1]; 1.66 µM in assay [3]; 2.21 µM in [4]; 1.53 µM in assay [5]; 1.39 µM in [6]. Moreover, the TGI in assay [7] was 0.72 µM; in assay [8], 0.618 µM; in assay [9], 1.17 µM.

Take `Nc1nc(N)c(CCCCc2ccc([N+](=O)[O-])cc2)c(N)n1`: the TGI in assay [10], in assay [1], in assay [2], in assay [3], in assay [4] and in assay [5] was > 100 µM each time. In addition, the TGI in assay [6], in assay [7], in assay [8] and in assay [9] was > 100 µM in each case.

Regarding `CNC(=O)c1sc(-n2cnc3cc(OC)c(OC)cc32)cc1OCc1ccccc1C(F)(F)F`, the GI50 in assay [10] is > 25 µM; in assay [1], > 25 µM; in [2], 22.9 µM; in assay [3], 19.9 µM; in assay [4], 14.9 µM; in assay [5] it was > 25 µM. In addition, the GI50 in [6], in assay [7], in assay [8] and in [9] was > 25 µM throughout. In addition, the TGI in assay [10], in [1], in assay [2], in assay [3], in assay [4] and in assay [5] was > 25 µM in each case. The TGI in assay [6], in [7], in [8] and in assay [9] was > 25 µM in each case.

As to `COc1cc([C@H]2OC[C@@H]3C(c4cc(OC)c5c(c4)OCO5)OC[C@H]23)cc(OC)c1OC` (some centres not stated), the TGI in assay [10], in assay [1], in assay [2], in assay [3], in assay [4] and in assay [5] was > 100 µM in each case. The TGI in assay [6], in [7], in assay [8] and in [9] was > 100 µM in each case.

For the origin of these results see PubChem BioAssay (NCI).
